Results published in patent US9315494B2, “Alkyl-amide-substituted pyridyl compounds useful as modulators of IL-12, IL-23 and/or IFNα responses” (Bristol-Myers Squibb Company, priority 2012, dated 2016).

How the values were obtained:
[1] = tested on: IL-23-stimulated STAT-dependent luciferase reporter in Kit225 T cells; experiment: Kit225 T cell assay, IL-23 stimulated STAT-dependent luciferase reporter; assay type: cell-based, human; details: Kit225 T cells, 20 ng/mL human recombinant IL-23, 5-6 hours, luciferase; read-out: IL23 (Kit225 T Cell Inhibition Data)
Procedure, shortened: (§1)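 Kit225 T cells carrying a stably integrated STAT-luciferase reporter, in RPMI with 10% heat-inactivated FBS, were stimulated with 20 ng/mL IL-23 or 200 U/mL IFNα for 5-6 h. Readout was luminescence from the luciferase reporter.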

[2] = tested on: IFNα-stimulated STAT-dependent luciferase reporter in Kit225 T cells; experiment: Kit225 T cell assay, IFNα stimulated STAT-dependent luciferase reporter; assay type: cell-based, human; details: Kit225 T cells, 200 U/mL human recombinant IFNα, 5-6 hours, luciferase; read-out: IFNα (Kit225 T Cell Inhibition Data)
Procedure, shortened: as §1

| IC50 [1] | IC50 [2] | SMILES |
| --- | --- | --- |
| 0.25 µM | 0.33 µM | CCc1ncccc1Nc1cc(Nc2cc(C)nc(C)n2)ncc1C(=O)NC [Example 402] |
| 0.48 µM | 0.44 µM | CCc1cc(C#N)ccc1Nc1cc(Nc2cc(C)nc(C)n2)ncc1C(=O)NC [Example 401] |
| 0.0892 µM | 0.05 µM | CNC(=O)c1cnc(Nc2ccccn2)cc1Nc1cccc(F)c1OC [Example 172] |
| 0.0649 µM | 0.05 µM | CNC(=O)c1cnc(Nc2ccc(C)cn2)cc1Nc1ccccc1S(C)(=O)=O [Example 22] |
| 0.632 µM | 0.44 µM | CNC(=O)c1cnc(Nc2cc(F)ccn2)cc1Nc1ccc(Cl)cc1OC [Example 115] |
| 0.434 µM | 0.5 µM | CNC(=O)c1cnc(Nc2ccc(F)cn2)cc1Nc1cccc(F)c1C(N)=O [Example 175] |
| 0.02 µM | 0.02 µM | [2H]C([2H])([2H])NC(=O)c1cnc(Nc2ccccn2)cc1Nc1cccc(-c2cnn(C)c2)c1OC [Example 398] |
| 0.14 µM | 0.14 µM | CNC(=O)c1cnc(Nc2cc(C#N)ccn2)cc1Nc1ccccc1NS(C)(=O)=O [Example 281] |
| 1.33 µM | 0.97 µM | CNC(=O)c1cnc(Nc2cc(Cl)ccn2)cc1Nc1ccc(F)cc1OC [Example 153] |
| 0.22 µM | 0.07 µM | CNC(=O)c1cnc(Nc2cc(C)c(F)cn2)cc1Nc1cccc(C(=O)NCC2CC2)c1OC [Example 324] |
| 1.06 µM | 0.67 µM | CNC(=O)c1cnc(Nc2cc(C(C)=O)ccn2)cc1Nc1ccccc1S(C)(=O)=O [Example 26] |
| 0.09 µM | 0.08 µM | CNC(=O)c1cnc(Nc2ccccn2)cc1Nc1cc(F)ccc1S(C)(=O)=O [Example 53] |
| 0.28 µM | 0.13 µM | CNC(=O)c1cnc(Nc2cc(C)nc(C)n2)cc1Nc1ccccc1S(C)(=O)=O [Example 300] |
| 0.218 µM | 0.12 µM | CNC(=O)c1cnc(Nc2ccccn2)cc1Nc1ccc(F)cc1S(C)(=O)=O [Example 10] |
| 0.14 µM | 0.15 µM | CNC(=O)c1cnc(Nc2cc(F)ccn2)cc1Nc1ccccc1NS(C)(=O)=O [Example 427] |
| 0.0044 µM | 0.00863 µM | [2H]C([2H])([2H])NC(=O)c1cnc(Nc2cc(C)nc(C)n2)cc1Nc1cccc(-c2csc(C)n2)c1OC [Example 404, 6-((2,6-dimethylpyrimidin-4-yl)amino)-4-((2-methoxy-3-(2-methylthiazol-4-yl)phenyl)amino)-N-trideuteromethylnicotinamide] |
| 0.369 µM | 0.23 µM | CNC(=O)c1cnc(Nc2cccc(OC)n2)cc1Nc1ccc(Cl)cc1OC [Example 108] |
| 0.236 µM | 0.26 µM | CNC(=O)c1cnc(Nc2cccc(F)n2)cc1Nc1ccccc1C(N)=O [Example 74] |
| 0.152 µM | 0.12 µM | CNC(=O)c1cnc(Nc2ccc(N3CCOCC3)cn2)cc1Nc1ccccc1OC [Example 216] |
| 0.398 µM | 0.33 µM | CNC(=O)c1cnc(Nc2ccc(N3CCCCC3=O)cn2)cc1Nc1ccc(Cl)cc1OC [Example 103] |
| 0.08 µM | 0.03 µM | CNC(=O)c1cnc(Nc2cc(C)nc(C)n2)cc1Nc1cccc(-c2ccnn2C)c1OC [Example 394] |

| IC50 [1] | IC50 [2] | SMILES |
| --- | --- | --- |
| 1.42 µM | 1.22 µM | CNC(=O)c1cnc(Nc2cc(-n3ccccc3=O)ccn2)cc1Nc1ccc(F)cc1OC [Example 168] |
| 0.02 µM | 0.02 µM | CNC(=O)c1cnc(Nc2cc(C)c(F)cn2)cc1Nc1cccc(C(=O)NCCOC)c1OC [Example 352] |
| 0.794 µM | 0.42 µM | CNC(=O)c1cnc(Nc2ccc(C#N)cn2)cc1Nc1cc(F)cc(F)c1OC [Example 145] |
| 0.0614 µM | 0.07 µM | CNC(=O)c1cnc(Nc2ccccn2)cc1Nc1ccccc1S(C)(=O)=O [Example 3] |
| 0.104 µM | 0.1 µM | CNC(=O)c1cnc(Nc2ccc(Cl)cn2)cc1Nc1ccccc1S(C)(=O)=O [Example 17] |
| 0.76 µM | 0.61 µM | CNC(=O)c1cnc(Nc2ccc(OC)cn2)cc1Nc1ccc(F)cc1OC [Example 161] |
| 1.82 µM | 0.43 µM | CNC(=O)c1cnc(Nc2ccc(C#N)c(C)n2)cc1Nc1ccccc1C(N)=O [Example 86] |
| 0.25 µM | 0.6 µM | CCNC(=O)c1cnc(Nc2ccc(F)cn2)cc1Nc1ccccc1S(C)(=O)=O [Example 297] |
| 1.92 µM | 0.63 µM | CNC(=O)c1cnc(Nc2ccc(F)cn2)cc1Nc1ccc(C(=O)NC2CC2)cc1S(C)(=O)=O [Example 309] |
| 0.336 µM | 0.19 µM | CNC(=O)c1cnc(Nc2cc(C(=O)N(C)C)ccn2)cc1Nc1cc(F)cc(F)c1OC [Example 274] |
| 1.03 µM | 0.33 µM | CNC(=O)c1cnc(Nc2cc(C)c(F)cn2)cc1Nc1cccc(-c2nnn[nH]2)c1OC [Example 390] |
| 1.74 µM | 2.71 µM | CNC(=O)c1cnc(Nc2ccc(F)cn2)cc1Nc1ccc(C(N)=O)cc1 [Example 242] |
| 0.998 µM | 0.42 µM | CNC(=O)c1cnc(Nc2ccccn2)cc1Nc1ccc(Cl)cc1OC [Example 110] |
| 8.79 µM | 11.1 µM | CNC(=O)c1cnc(Nc2ccc(F)cn2)cc1Nc1cccc2c1OC(F)(F)O2 [Example 123] |
| 0.0819 µM | 0.05 µM | CNC(=O)c1cnc(Nc2cc(C#N)ccn2)cc1Nc1cccc(F)c1OC [Example 173] |
| 1.19 µM | 0.82 µM | CNC(=O)c1cnc(Nc2cc(C(=O)NCCOC)ccn2)cc1Nc1ccc(F)cc1OC [Example 271] |
| 0.542 µM | 0.35 µM | CNC(=O)c1cnc(Nc2cc(C(N)=O)ccn2)cc1Nc1cc(F)cc(F)c1OC [Example 264] |
| 0.04 µM | 0.02 µM | CNC(=O)c1cnc(Nc2cc(C)c(F)cn2)cc1Nc1cccc(C(=O)NCC(F)(F)F)c1OC [Example 346] |
| 0.319 µM | 0.21 µM | CNC(=O)c1cnc(Nc2cc(C(=O)N3CCOCC3)ccn2)cc1Nc1cc(F)cc(F)c1OC [Example 265] |
| 0.36 µM | 0.19 µM | CNC(=O)c1cnc(Nc2ccn(C)n2)cc1Nc1ccccc1S(C)(=O)=O [Example 437] |
| 2.82 µM | 2.58 µM | CNC(=O)c1cnc(Nc2ccc(F)cn2)cc1Nc1ccc(N2CCOCC2)cc1OC [Example 187] |

| IC50 [1] | IC50 [2] | SMILES |
| --- | --- | --- |
| 1.47 µM | 1.31 µM | CNC(=O)c1cnc(Nc2ncccc2F)cc1Nc1ccccc1C(N)=O [Example 69] |
| 4.72 µM | 5.6 µM | CNC(=O)c1cnc(Nc2ccc3ccccc3n2)cc1NC1CCC(F)(F)CC1 [Example 292] |
| 0.25 µM | 0.18 µM | CCOc1ccc(Nc2cc(Nc3ccccc3S(C)(=O)=O)c(C(=O)NC)cn2)nn1 [Example 444] |
| 5.2 µM | 9.86 µM | CNC(=O)c1cnc(Nc2ccc(C(F)(F)F)cn2)cc1Nc1ccc(F)cc1OC [Example 157] |
| 0.143 µM | 0.06 µM | CNC(=O)c1cnc(Nc2ccccn2)cc1Nc1ccc(OC)cc1S(C)(=O)=O [Example 8] |
| 1.98 µM | 0.48 µM | CNC(=O)c1cnc(Nc2cccc(C(F)(F)F)n2)cc1Nc1ccc(Cl)cc1OC [Example 117] |
| 0.09 µM | 0.09 µM | CNC(=O)c1cnc(Nc2ccn(C)n2)cc1Nc1cc(F)cc(F)c1OC [Example 407] |
| 0.25 µM | 0.1 µM | CNC(=O)c1cnc(Nc2ccc(N3CCOCC3)cn2)cc1Nc1cc(F)cc(F)c1OC [Example 406] |
| 2.38 µM | 1.65 µM | CCN(CC)C(=O)c1ccc(Nc2cc(Nc3ccc(F)cn3)ncc2C(=O)NC)cc1 [Example 246] |
| 2.16 µM | 1.45 µM | CNC(=O)c1cnc(Nc2cc3ccccc3cn2)cc1Nc1ccc(F)cc1OC [Example 146] |
| 0.27 µM | 0.2 µM | CNC(=O)c1cnc(Nc2cc(F)ccn2)cc1Nc1ccc(F)cc1S(C)(=O)=O [Example 51] |
| 0.16 µM | 0.05 µM | CNC(=O)c1cnc(Nc2ccccn2)cc1Nc1ccccc1S(N)(=O)=O [Example 430] |
| 1.63 µM | 1.88 µM | CNC(=O)c1cnc(Nc2cnccn2)cc1Nc1ccccc1C(N)=O [Example 178] |
| 0.03 µM | 0.02 µM | CNC(=O)c1cnc(Nc2cc(C)c(F)cn2)cc1Nc1ccccc1S(C)(=O)=O [Example 432] |
| 0.15 µM | 0.18 µM | CNC(=O)c1cnc(Nc2ccn(-c3ccc(Cl)cc3)n2)cc1Nc1ccccc1S(C)(=O)=O [Example 446] |
| 4.17 µM | 2.03 µM | CNC(=O)c1cnc(Nc2ccc(F)cn2)cc1Nc1cccc2[nH]ccc12 [Example 212] |
| 0.05 µM | 0.02 µM | CNC(=O)c1cnc(Nc2cc(C)cc(C)n2)cc1Nc1ccccc1S(C)(=O)=O [Example 443] |
| 0.751 µM | 0.3 µM | CNC(=O)c1cnc(Nc2cc(C)ccn2)cc1Nc1ccc(F)cc1OC [Example 148] |
| 2.41 µM | 1.68 µM | CNC(=O)c1cnc(Nc2ccc(F)cn2)cc1Nc1cccc(F)c1S(C)(=O)=O [Example 47] |
| 0.625 µM | 0.41 µM | CCN(CC)C(=O)c1ccc(Nc2cc(Nc3ccc(F)cn3)ncc2C(=O)NC)c(OC)c1 [Example 240] |
| 0.27 µM | 0.09 µM | CNC(=O)c1cnc(Nc2ccccn2)cc1Nc1ccc(F)cc1S(C)(=O)=O [Example 299] |

| SMILES | IC50 [1] | IC50 [2] |
| --- | --- | --- |
| CNC(=O)c1cnc(Nc2ccccn2)cc1Nc1ccccc1S(=O)(=O)C(F)(F)F [Example 29] | 7.11 µM | 7.98 µM |
| CNC(=O)c1cnc(Nc2ccc(F)cn2)cc1Nc1ccc(OC)cc1S(C)(=O)=O [Example 6] | 0.091 µM | 0.11 µM |
| CNC(=O)c1cnc(Nc2cc3ccccc3cn2)cc1Nc1ccccc1S(C)(=O)=O [Example 25] | 0.0877 µM | 0.11 µM |
